Results: ChEMBL document CHEMBL1201862, “PubChem BioAssay data set” (2004)
Active and inactive are the calls of the source.

Key:
[1] = P. falciparum late gametocyte killing, dose response, luminescence (AID 1117278); format: functional, cell-based;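 further: gametocytes exposed to compound for 24 hours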
[2] = Jurkat T cell cytotoxicity, dose response, cytotoxicity control for P. falciparum gametocyte viability project, luminescence (AID 1117277); format: functional, cell-based;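 further: potency reflects loss of cellular ATP meaning fewer viable cells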
[3] = target: Protein-tyrosine kinase 2-beta (Homo sapiens, UniProt Q14289);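 further: potency of inhibitors of PYK2 kinase phosphorylation of poly-GT substrate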
Chain of Protein-tyrosine kinase 2-beta (Q14289 whole entry): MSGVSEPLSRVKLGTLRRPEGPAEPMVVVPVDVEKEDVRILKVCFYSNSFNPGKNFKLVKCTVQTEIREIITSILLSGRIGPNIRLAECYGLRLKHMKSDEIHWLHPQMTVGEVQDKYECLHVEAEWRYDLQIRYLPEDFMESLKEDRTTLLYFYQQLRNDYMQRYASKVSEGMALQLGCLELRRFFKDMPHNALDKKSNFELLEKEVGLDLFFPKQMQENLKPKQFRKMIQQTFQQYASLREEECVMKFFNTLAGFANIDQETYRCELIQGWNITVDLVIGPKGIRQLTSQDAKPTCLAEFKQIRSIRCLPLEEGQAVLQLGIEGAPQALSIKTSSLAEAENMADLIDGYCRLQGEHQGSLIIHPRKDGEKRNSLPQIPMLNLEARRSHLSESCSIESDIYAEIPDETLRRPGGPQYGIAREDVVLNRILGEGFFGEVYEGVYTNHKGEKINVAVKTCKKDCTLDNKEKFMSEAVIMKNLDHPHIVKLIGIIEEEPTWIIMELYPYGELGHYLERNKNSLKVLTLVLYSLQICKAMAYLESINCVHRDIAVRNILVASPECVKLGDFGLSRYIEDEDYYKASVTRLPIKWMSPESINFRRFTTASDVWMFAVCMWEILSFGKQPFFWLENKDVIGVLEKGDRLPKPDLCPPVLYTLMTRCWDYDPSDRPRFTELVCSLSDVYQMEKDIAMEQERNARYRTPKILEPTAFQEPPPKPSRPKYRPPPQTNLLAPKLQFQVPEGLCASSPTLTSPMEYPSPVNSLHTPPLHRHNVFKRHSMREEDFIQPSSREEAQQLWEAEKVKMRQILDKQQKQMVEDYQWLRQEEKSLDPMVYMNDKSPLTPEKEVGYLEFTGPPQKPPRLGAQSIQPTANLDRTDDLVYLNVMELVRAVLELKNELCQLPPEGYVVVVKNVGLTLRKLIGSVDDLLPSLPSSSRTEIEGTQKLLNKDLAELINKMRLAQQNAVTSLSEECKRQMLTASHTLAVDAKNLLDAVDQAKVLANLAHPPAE

[4] = HEp-2 cell cytotoxicity, dose response, cytotoxicity control for RSV inhibitor project, HTS (AID 2410); format: functional; conditions: human respiratory syncytial virus
[5] = P. falciparum ATP4 D1247Y mutant growth inhibitors, dose response, NITD609-resistant line, SYBR Green, dry powder (AID 1159571); format: functional, cell-based;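 further: parasites synchronized at ring stage by sorbitol before testing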
[6] = HepG2 cell cytotoxicity, dose response, cytotoxicity control, plate reader, dry powder samples (AID 1159569); format: functional, cell-based;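 further: inhibitor potency with signal falling toward the positive control level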
[7] = P. falciparum Dd2 growth inhibitors, dose response, SYBR Green, dry powder samples (AID 1159566); format: functional, cell-based;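 further: potency for growth inhibition with lower SYBR green DNA signal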
[8] = P. falciparum Dd2 growth inhibitors, dose response, SYBR Green, cherry-picked samples (AID 1159567); format: functional, cell-based
[9] = P. falciparum 3D7-ScDHODH growth inhibitors, dose response, SYBR Green, dry powder samples (AID 1159570); format: functional, cell-based;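 further: parasite growth measured after 72 hours of compound exposure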
[10] = inhibitors of clade B AD8 Env fusion, dose response, cell-based, cherry-pick (AID 652062); format: functional;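 further: luciferase signal from cell-cell fusion driven by HIV-1 clade B AD8 Env; potency is for inhibitors of fusion seen as a drop in luminescence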
[11] = ZM109 Env clade C HIV-1 fusion inhibitors, dose response, HeLa effector, CEM target cells, luciferase, cherry-pick (AID 652058); format: functional, cell-based
[12] = target: Beta-galactosidase (Escherichia coli, UniProt Q8VNN2); test: Dose response counterscreen for EBI2 assay utilizing the enzyme, b-galactosidase.; format: functional
Chain of Beta-galactosidase (Q8VNN2 whole entry): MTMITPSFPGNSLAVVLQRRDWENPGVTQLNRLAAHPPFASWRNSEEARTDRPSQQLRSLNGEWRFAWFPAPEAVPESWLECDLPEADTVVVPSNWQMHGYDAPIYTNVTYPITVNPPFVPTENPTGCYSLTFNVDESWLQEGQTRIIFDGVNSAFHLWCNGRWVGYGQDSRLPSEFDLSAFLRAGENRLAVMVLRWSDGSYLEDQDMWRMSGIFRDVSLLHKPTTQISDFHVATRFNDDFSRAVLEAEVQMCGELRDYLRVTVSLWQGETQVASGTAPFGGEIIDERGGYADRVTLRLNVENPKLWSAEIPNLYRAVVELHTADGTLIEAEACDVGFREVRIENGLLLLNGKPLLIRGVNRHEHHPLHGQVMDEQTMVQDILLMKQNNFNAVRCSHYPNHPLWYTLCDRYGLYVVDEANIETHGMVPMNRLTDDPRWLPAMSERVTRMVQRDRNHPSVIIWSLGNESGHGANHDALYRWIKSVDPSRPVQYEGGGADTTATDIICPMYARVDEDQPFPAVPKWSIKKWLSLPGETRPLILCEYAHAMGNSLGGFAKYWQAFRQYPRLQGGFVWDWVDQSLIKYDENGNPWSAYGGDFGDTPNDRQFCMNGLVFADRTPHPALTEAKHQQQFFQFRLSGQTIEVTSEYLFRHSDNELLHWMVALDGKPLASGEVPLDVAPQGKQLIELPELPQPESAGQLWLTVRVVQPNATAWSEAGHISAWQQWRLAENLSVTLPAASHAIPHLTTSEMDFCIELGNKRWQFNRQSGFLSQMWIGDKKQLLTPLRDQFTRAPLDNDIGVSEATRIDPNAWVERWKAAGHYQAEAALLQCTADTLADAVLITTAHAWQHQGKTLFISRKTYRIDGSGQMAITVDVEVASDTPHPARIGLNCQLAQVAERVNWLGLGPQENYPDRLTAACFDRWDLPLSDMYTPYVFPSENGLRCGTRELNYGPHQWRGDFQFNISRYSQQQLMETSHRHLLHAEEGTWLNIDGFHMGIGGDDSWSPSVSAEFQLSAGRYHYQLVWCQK

[13] = target: T1, E3 ubiquitin-protein ligase XIAP (Homo sapiens, UniProt P98170); test: XIAP antagonists, biochemical, IAP family, fluorescence polarization (AID 1018); format: functional
T1 sequence (P98170 whole entry): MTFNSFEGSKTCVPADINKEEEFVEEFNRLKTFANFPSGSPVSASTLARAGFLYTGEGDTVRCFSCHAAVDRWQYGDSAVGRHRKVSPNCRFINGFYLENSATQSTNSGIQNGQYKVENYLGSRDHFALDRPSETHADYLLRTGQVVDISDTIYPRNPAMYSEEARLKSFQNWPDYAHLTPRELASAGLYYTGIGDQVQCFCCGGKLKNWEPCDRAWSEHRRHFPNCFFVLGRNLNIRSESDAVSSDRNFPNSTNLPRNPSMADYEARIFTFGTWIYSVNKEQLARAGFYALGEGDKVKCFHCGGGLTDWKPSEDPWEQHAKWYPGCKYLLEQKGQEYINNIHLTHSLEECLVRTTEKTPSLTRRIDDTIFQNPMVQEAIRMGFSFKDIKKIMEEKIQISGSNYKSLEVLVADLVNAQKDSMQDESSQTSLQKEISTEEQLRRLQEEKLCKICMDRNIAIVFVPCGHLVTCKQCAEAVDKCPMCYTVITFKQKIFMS

[14] = target: T2, Protein skinhead-1 (Caenorhabditis elegans, UniProt P34707); format: functional
T2 sequence (P34707 whole entry): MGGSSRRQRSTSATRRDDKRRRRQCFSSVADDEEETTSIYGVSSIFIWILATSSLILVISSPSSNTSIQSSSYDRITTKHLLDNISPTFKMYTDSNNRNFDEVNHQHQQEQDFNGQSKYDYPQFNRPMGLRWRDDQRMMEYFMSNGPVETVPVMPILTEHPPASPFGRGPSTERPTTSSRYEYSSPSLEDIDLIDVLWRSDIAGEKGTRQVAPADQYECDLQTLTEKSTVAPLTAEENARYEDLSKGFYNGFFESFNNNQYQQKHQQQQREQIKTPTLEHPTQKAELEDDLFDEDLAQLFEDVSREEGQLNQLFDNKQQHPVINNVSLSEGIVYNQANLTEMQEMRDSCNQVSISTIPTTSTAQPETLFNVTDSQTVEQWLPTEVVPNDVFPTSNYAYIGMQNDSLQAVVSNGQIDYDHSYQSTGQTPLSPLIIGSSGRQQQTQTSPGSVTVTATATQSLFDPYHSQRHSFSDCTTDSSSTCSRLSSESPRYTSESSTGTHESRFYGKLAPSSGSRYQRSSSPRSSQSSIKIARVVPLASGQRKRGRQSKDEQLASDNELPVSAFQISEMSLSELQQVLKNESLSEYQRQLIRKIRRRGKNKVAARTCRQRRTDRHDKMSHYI

[15] = target: T1, E3 ubiquitin-protein ligase XIAP; test: Counter Screen using XIAP-Bir3 for Chemical Antagonists of Bir1/2 domains of IAP-family anti-apoptotic proteins. [Related pubchem assays (depositor defined):AID1018, AID1449, AID1514, AID1638, AID1749, AID1750, AID488957, AID488963]
[16] = target: Estrogen receptor beta (Homo sapiens, UniProt Q92731); test: ERβ–SRC-3 coactivator interaction inhibitors, confirmation, orthogonal assay, biochemical, ELISA, streptavidin-HRP readout (AID 1060)
Chain of Estrogen receptor beta (Q92731 whole entry): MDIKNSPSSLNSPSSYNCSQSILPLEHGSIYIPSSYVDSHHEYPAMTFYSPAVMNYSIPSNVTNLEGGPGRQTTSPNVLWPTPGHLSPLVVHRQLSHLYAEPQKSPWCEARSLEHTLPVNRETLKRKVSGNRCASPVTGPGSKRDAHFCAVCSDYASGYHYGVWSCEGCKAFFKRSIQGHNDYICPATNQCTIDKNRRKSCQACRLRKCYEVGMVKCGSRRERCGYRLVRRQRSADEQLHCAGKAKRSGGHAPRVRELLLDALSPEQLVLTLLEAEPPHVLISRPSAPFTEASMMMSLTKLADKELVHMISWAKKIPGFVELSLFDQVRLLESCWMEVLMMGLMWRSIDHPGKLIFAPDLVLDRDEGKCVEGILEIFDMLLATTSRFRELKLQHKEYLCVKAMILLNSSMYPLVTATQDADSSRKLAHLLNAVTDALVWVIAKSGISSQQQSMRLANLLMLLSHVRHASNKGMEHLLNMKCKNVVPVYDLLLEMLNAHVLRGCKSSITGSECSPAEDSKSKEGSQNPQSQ

[17] = target: T3, Sentrin-specific protease 8 (Homo sapiens, UniProt Q96LD8); format: functional
T3 sequence (Q96LD8 whole entry): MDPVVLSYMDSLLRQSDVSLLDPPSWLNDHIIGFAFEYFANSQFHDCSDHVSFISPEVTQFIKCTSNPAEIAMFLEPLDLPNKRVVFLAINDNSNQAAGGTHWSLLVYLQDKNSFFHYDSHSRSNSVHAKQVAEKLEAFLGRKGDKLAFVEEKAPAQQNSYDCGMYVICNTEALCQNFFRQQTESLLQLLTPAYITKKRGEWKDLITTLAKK

[18] = target: T3, Sentrin-specific protease 8; format: functional; remark: listed apart in the source
[19] = target: T4, Protein RecA (Mycobacterium tuberculosis, UniProt P9WHJ3); test: Fluorescence Cell-Free Homogeneous Dose Retest to Identify Inhibitors of RecA-Intein Splicing Activity. [Related pubchem assays (depositor defined):AID2097, AID2223, AID489010, AID492950]; format: functional
T4 sequence (P9WHJ3 whole entry): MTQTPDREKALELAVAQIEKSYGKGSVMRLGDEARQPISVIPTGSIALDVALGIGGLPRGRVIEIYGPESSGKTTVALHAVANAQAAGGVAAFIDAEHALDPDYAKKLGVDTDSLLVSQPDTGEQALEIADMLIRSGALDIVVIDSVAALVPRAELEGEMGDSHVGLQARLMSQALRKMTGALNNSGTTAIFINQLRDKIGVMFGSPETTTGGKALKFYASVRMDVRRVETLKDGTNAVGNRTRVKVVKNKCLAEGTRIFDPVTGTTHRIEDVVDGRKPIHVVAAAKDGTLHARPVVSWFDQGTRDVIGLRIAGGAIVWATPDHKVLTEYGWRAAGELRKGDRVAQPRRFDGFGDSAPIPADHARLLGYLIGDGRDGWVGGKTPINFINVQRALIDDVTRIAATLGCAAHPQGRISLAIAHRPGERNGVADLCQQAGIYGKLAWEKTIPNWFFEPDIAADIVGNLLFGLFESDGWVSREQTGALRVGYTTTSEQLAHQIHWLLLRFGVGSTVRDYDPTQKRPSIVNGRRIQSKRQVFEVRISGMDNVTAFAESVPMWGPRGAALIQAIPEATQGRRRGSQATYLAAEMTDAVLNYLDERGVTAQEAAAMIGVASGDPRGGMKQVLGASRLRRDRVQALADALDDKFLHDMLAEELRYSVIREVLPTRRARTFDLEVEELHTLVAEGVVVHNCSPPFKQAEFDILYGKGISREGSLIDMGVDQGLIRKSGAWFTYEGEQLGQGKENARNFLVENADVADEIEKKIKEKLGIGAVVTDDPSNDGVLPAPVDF

[20] = target: Large T antigen (Simian virus 40, UniProt P03070); format: functional, Betapolyomavirus macacae;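 further: Confirmatory-stage PubChem screen for compounds that inhibit SV40 T antigen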
Chain of Large T antigen (P03070 whole entry): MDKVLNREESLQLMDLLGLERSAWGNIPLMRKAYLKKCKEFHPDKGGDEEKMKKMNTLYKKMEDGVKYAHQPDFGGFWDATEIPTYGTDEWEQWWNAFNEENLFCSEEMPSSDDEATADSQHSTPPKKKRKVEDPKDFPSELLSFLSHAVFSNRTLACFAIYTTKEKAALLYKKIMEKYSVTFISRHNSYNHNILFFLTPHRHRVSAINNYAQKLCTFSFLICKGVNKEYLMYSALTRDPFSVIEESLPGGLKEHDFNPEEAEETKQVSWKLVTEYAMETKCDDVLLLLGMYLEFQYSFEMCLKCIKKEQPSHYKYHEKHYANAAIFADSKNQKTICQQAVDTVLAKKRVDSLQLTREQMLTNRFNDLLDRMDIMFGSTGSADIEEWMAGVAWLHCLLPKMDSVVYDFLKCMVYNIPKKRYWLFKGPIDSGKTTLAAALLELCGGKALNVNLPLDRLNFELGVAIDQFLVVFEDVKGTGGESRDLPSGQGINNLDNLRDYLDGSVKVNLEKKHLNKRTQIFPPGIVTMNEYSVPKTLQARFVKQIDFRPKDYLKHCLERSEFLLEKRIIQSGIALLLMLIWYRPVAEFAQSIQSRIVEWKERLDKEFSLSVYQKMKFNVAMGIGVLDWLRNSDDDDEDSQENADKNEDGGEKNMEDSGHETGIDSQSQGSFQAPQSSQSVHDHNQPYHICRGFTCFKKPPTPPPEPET

[21] = target: T5, Replicative DNA helicase DnaB (Mycobacterium tuberculosis, UniProt P9WMR3); test: DnaB intein splicing inhibitors, dose response, biochemical, cell-free fluorescence (AID 449749); format: functional
T5 sequence (P9WMR3 whole entry): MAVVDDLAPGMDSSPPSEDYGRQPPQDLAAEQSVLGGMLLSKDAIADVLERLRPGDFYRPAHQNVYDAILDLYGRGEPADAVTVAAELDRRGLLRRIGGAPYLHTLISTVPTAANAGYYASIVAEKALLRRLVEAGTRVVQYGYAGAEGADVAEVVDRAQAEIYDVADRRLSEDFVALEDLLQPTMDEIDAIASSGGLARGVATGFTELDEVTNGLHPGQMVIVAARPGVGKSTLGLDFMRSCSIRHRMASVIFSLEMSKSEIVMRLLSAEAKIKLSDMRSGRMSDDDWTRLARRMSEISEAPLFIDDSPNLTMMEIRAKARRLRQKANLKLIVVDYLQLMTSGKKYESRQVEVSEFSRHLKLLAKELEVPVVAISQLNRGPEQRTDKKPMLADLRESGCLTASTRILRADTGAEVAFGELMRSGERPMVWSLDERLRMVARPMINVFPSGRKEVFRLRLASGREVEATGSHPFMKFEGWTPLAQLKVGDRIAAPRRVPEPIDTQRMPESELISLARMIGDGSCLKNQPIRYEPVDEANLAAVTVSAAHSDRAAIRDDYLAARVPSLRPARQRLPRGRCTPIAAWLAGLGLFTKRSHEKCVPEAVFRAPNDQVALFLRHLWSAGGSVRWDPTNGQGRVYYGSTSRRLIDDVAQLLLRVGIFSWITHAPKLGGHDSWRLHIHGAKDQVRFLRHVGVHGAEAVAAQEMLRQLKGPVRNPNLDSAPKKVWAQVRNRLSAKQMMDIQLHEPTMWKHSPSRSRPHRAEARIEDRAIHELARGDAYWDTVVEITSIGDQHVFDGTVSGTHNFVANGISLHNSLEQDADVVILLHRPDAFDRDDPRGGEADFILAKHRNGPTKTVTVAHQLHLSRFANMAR

[22] = THP-1 cell cytotoxicity, dose response, cytotoxicity control for Vif-APOBEC3G degradation inhibitor project, THP-1 cells (AID 1117359); format: functional; conditions: Human immunodeficiency virus 1, THP-1
[23] = target: Paired box protein Pax-8 (Homo sapiens, UniProt Q06710); test: inhibitors of PAX8-driven TPO luciferase reporter, dose response, RMG-I cells, cherry-pick (AID 687027); format: functional, cell-based;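 further: luciferase reporter driven by Pax8 target thyroperoxidase promoter measured by SteadyGlo luminescence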
Chain of Paired box protein Pax-8 (Q06710 whole entry): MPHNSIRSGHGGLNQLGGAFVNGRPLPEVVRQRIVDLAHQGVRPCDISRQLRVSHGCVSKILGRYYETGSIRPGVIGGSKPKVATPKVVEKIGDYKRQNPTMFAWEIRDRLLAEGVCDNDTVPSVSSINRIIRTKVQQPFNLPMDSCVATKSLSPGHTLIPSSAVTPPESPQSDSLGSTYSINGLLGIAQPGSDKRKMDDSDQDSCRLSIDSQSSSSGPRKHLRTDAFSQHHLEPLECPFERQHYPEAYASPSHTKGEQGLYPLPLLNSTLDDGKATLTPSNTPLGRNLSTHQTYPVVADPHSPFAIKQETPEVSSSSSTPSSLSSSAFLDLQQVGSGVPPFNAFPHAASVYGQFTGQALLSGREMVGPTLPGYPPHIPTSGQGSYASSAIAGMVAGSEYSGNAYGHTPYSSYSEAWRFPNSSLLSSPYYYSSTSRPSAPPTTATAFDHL

[24] = tested on: HEK293; test: inhibitors of LMP1-driven NF-kB reporter, dose response, cell-based, HEK293, luciferase, cherry-pick (AID 588343); format: functional; conditions: Homo sapiens

## Cc1cc(NC(=O)COC(=O)c2cccc(O)c2)no1
[1]
  IC50: > 109 µM (inactive)
[2]
  IC50: > 83.2 µM (inactive)

## CCN(CC)C(=O)CSc1nc(N)c2c3c(sc2n1)CC(C)CC3 (centres undefined)
[3]
  IC50: > 69.5 µM (not active)
[4]
  CC50: 8.74 µM (active)

## C[C@H](CO)N1C[C@H](C)[C@H](CN(C)C(=O)Cc2ccncc2)Oc2cc(C#CC3CCCC3)ccc2S1(=O)=O
[5]
  AC50: 4.96 µM (active)
[6]
  AC50: 97 µM (active)
[7]
  AC50: 2.28 µM (active)
[8]
  AC50: 2.13 µM (active)
[9]
  AC50: 4.97 µM (active)

## C[C@@H]1CCCCO[C@H](CN(C)C)[C@H](C)CN([C@@H](C)CO)C(=O)c2cc(NS(=O)(=O)c3cn(C)cn3)ccc2O1
[10]
  AC50: 2.6 µM (active)
[11]
  AC50: 1.36 µM (active)

## CCOC(=O)c1cnc(SCC(=O)Nc2cc(C(F)(F)F)ccc2N2CCOCC2)nc1N
[12]
  IC50: > 80 µM (inactive)

## C=CCSc1nnc(-c2ccc(Cl)cc2Cl)o1
[13]
  IC50: > 100 µM (not active)
[14]
  IC50: 7.91 µM (active)
[15]
  IC50: > 100 µM (inactive)

## N#Cc1ccccc1OCC(=O)OCC(=O)N1CCN(C(=O)c2ccco2)CC1
[1]
  IC50: > 109 µM (inactive)
[2]
  IC50: > 83.3 µM (inactive)

## CN(C)CCN1CCc2ccccc21
[16]
  IC50: 0.0579 µM (not active)
[3]
  IC50: 6.46 µM (active)

## CN(C)CC(=O)N1C[C@@H]2N[C@H](C1)[C@@H]2c1ccc(/C=C/c2ccccc2)cc1
[5]
  AC50: 4.64 µM (active)
[6]
  AC50: 23.2 µM (active)
[7]
  AC50: 1.94 µM (active)
[8]
  AC50: 2.01 µM (active)
[9]
  AC50: 4.57 µM (active)

## Cc1cc2c(NC(=O)CC(C)(C)CC(=O)O)cccc2nn1
[17]
  IC50: 8.03 µM (active)
[18]
  IC50: 15.1 µM (active)

## CCOc1cc(NC2CS(=O)(=O)CC2O)c(OCC)cc1NC(=O)c1ccccc1 (centres undefined)
[17]
  IC50: 45.9 µM (active)
[19]
  EC50: > 380 µM (inactive)
[18]
  IC50: 34.7 µM (active)
[20]
  IC50: 31.1 µM (active)
[21]
  AC50: 52.8 µM (active)

## Nc1nc(NC(=O)c2ccccc2)nn1-c1ccccc1
[1]
  IC50: > 109 µM (inactive)
[2]
  IC50: > 83.3 µM (inactive)

## CN(Cc1ccccc1)C(=O)c1ccc2c(c1)NC(=O)C(N1CCOCC1)S2 (centres undefined)
[13]
  IC50: > 100 µM (not active)
[15]
  IC50: > 100 µM (inactive)

## CN(C)c1nc(N(C)C)n(C(=O)c2cccs2)n1
[1]
  IC50: > 109 µM (inactive)
[2]
  IC50: > 83.3 µM (inactive)

## COc1ccc(/C=C/C(=O)N2CCN(c3ccccn3)CC2)cc1
[12]
  IC50: > 80 µM (inactive)

## CCN1CCc2c(sc(N)c2C#N)C1
[16]
  IC50: 6.55 µM (not active)
[3]
  IC50: 23.6 µM (not active)

## C[C@H]1CN([C@@H](C)CO)C(=O)c2cc(C#Cc3cccc(F)c3)cnc2O[C@@H]1CN(C)C(=O)C1CCCCC1
[5]
  AC50: 0.742 µM (active)
[6]
  AC50: 22.1 µM (active)
[7]
  AC50: 0.495 µM (active)
[8]
  AC50: 0.686 µM (active)
[9]
  AC50: 1.37 µM (active)

## CNC[C@@H]1Oc2cc(C#Cc3cccnc3)ccc2S(=O)(=O)N([C@H](C)CO)C[C@H]1C
[5]
  AC50: 0.984 µM (active)
[6]
  AC50: 93.8 µM (active)
[7]
  AC50: 1.02 µM (active)
[8]
  AC50: 1.61 µM (active)
[9]
  AC50: 2.13 µM (active)

## O=C(Nc1ccc(Br)cn1)C1CCN(S(=O)(=O)c2cccs2)CC1
[22]
  CC50: > 40 µM (active)

## C=C1C(=O)C2=CC1CCC(=O)C1(C)CCC(OC(C)=O)C(C)(C)C1CC2O (centres undefined)
[22]
  CC50: 4.83 µM (active)
[23]
  AC50: 1.43 µM (active)
[24]
  AC50: 5.72 µM (active)

## COc1ccc(OCC(=O)N2CCN(c3nnc(-c4ccccc4)c4ccccc34)CC2)cc1
[12]
  IC50: > 80 µM (inactive)

## Cc1cc(OCC(=O)Nc2ccc(N3CCN(C(=O)c4ccco4)CC3)cc2)cc(C)c1Cl
[3]
  IC50: 5.96 µM (active)

## N#Cc1cccc(Oc2ccc(S(=O)(=O)N3CCCC3)cn2)c1
[22]
  CC50: > 40 µM (active)

## COC(=O)c1ccc(C(=O)OC)c(NS(C)(=O)=O)c1
[13]
  IC50: > 100 µM (not active)
[15]
  IC50: > 100 µM (inactive)
